Data on eleven compounds can be found in publication PMC7285321, “Evaluation of Indolocarbazoles from Streptomyces sanyensis as a Novel Source of Therapeutic Agents against the Brain-Eating Amoeba Naegleria fowleri” (Microorganisms, 2020).

Each structure is given as a SMILES string. Like-named read-outs stand apart in the source and are kept apart here.

Data set [1] can be described thus: Cytotoxicity assay, alamarBlue. The data set is classed as cell-based. To be noted: mouse, 37 °C, mean ± SD, read-out: Murine Macrophage J774.A1 CC50. As to the method:
(§1) Evaluation of in vitro toxicity was carried out using the murine macrophage J774A.1 cell line (ATCC # TIB-67, LG Promochem, Barcelona, Spain) which was routinely cultured in Dulbecco’s Modified Eagle’s medium (DMEM, w/v) supplemented with 10% (v/v) FBS and 10 µg/mL of gentamicin (Sigma–Aldrich, Madrid, Spain), at 37 °C in a 5% CO2 atmosphere as previously described.
(§2) Cytotoxicity of the compounds was evaluated using toxicity assays established in our laboratory based on the evaluation of the toxicity induced in a murine macrophages J774.A1 cell line (ATCC® TIB-67™). Concisely, different concentrations of the ICZs were incubated with the cell line, and alamarBlue® reagent (10% of medium volume) was placed in each well and incubated for 24 h, at 37 °C under 5% CO2 conditions. Results were examined as described in Section 2.4.1.
(In general: Resazurin is reduced to fluorescent resorufin, in cell work by metabolically active cells.)

Data set [2] concerns Naegleria fowleri ATCC 30808 trophozoites. The data set is described as follows: In vitro amoebicidal activity, alamarBlue colorimetric assay, trophozoites. As to conditions: for SI (CC50/IC50): CC50 J774A.1 / IC50 N. fowleri ATCC 30808; for IC50: Naegleria fowleri. As to the method:
(§3) Amoebae were grown at 37 °C in axenic conditions in 2% (w/v) bactocasitone medium (Thermo Fisher Scientific, Madrid, Spain) supplemented with 10% (v/v) foetal bovine serum (FBS), […] of penicillin G and 0,5 mg/mL of streptomycin sulphate (Sigma-Aldrich, Madrid, Spain). As required by the Spanish Government biosafety guidelines for this pathogen, amoebic strains were cultured in a biological security facility level 3 at the Instituto Universitario de Enfermedades Tropicales y Salud Pública de Canarias, Universidad de La Laguna.
(§4) The in vitro activity of the four ICZs included in this study was evaluated against trophozoites of two Naegleria fowleri type strains using a colorimetric assay. Amoebae (2 × 10^5 cells/mL) were placed in a sterile 96-well microtiter plate. Next, 50 μL of a serial dilution of each of the ICZs (in N. fowleri culture medium) was added to the plate. In all the activity assays, 2% DMSO was used to dissolve the highest dose of the molecules to prevent generation of any effects in the amoebic cells. Negative controls were also included in the assays, consisting of the addition of medium alone to the seeded trophozoites as previously described. Miltefosine and amphotericin B were used as positive controls whereas the addition of medium alone to the seeded trophozoites was considered as the negative control. Lastly, 10% of the alamarBlue® reagent was placed in each well, and plates were incubated with slight agitation for 48 h at 37 °C. After that, activity plates were evaluated with an EnSpire® Multimode Plate Reader (Perkin Elmer, Madrid, Spain) using a wavelength of 570 nm and a reference wavelength of 630 nm.
(§5) The IC90 values of the compounds were calculated using a GraphPad calculator (GraphPad Software, San Diego, CA, USA) based on the calculated IC50 and the Hill Slope (H). All experiments were performed in triplicate, and the mean values were also calculated.

Data set [3] deals with Naegleria fowleri ATCC 30215 trophozoites. The description is as above. The data set is classed as cell-based. To be noted: for IC50: ATCC30215, trophozoites, 48 h, 37 °C, mean ± SD, read-out: N. fowleri ATCC 30215 IC50. As to the method:
as §3, §4, §5

Data set [4] relates to murine macrophage J774A.1 cell line. The data set is described as follows: Cytotoxicity assay, alamarBlue. The data set is classed as cell-based. As to conditions: 24 h, 37 °C, mean ± SD; read-out: Murine Macrophage J774.A1 CC50. As to the method:
as §1, §2

Data set [5] relates to Naegleria fowleri trophozoites. As to the kind of experiment: Detection of DNA/chromatin condensation, Hoechst 33342/propidium iodide double stain. The class given is cell-based. As to conditions: IC90, 24 h; similar for both strains. From the text: The double-stain apoptosis detection kit constituted by Hoechst 33342 and propidium iodide (PI) (Life Technologies, Madrid. Spain) and an EVOS FL Cell Imaging System AMF4300 (Life Technologies, Madrid, Spain) were used in these experiments as per the manufacturer’s instructions. […] The assay is able to separate three groups of cell populations: dead cells which show an intense red and low-blue fluorescence; healthy cells showing a low level of fluorescence, and cells in PCD presenting intense blue fluorescence (condensed chromatin/DNA).

The subject of data set [6] is Naegleria fowleri trophozoites. As to the kind of experiment: Cellular membrane damage, SYTOX Green assay. The class given is cell-based. As to conditions: IC90, 24 h; both strains. As to the method: The SYTOX Green assay (Life Technologies, Madrid, Spain) allows the detection of alterations in the permeability of the cell membrane. The SYTOX Green dye binds to DNA, showing intense green fluorescence, only if the plasmatic membrane is damaged and allows it to enter the cytoplasm. […] After 24 h, 1 μM SYTOX Green (final concentration) was added to the cell culture and incubated for 15 min. Next, cells were examined in an EVOS FL Cell Imaging System AMF4300 (Life Technologies, Madrid, Spain).

Data set [7] deals with Naegleria fowleri trophozoites. As to the kind of experiment: Intracellular ROS generation, CellROX Deep Red assay. The class given is cell-based. As to conditions: IC90, 24 h; similar for both strains. As to the method:
Next, cells were exposed to 5 μM CellROX Deep Red for 30 min at 37 °C in the dark and observed after using the EVOS FL Cell Imaging System AMF4300 (Life Technologies, Madrid, Spain). The presence of intracellular ROS was shown by the detection of high red fluorescence in the cells.

Data set [8] relates to Naegleria fowleri trophozoites. As to the kind of experiment: Mitochondrial membrane potential, JC-1 assay. As to conditions: IC90, 24 h; similar for both strains. The data set is classed as cell-based. As to the method:
The evaluation of mitochondrial function disruption in STS-treated amoebae was carried out using the Celltiter-Glo® Luminescent Cell Viability Assay (Promega Biotech Ibérica, Madrid, Spain) and the JC-1 Mitochondrial Membrane Potential Detection Kit (Cayman Chemicals, Vitro SA, Madrid, Spain). The first kit detects the levels of ATP in STS-treated cells in comparison to non-treated cells.
Images were captured using an EVOS FL Cell Imaging System AMF4300 (Life Technologies, Madrid, Spain). The obtained staining pattern permitted the identification of two groups in a cellular population: live cells which would show only red fluorescence and cells presenting low mitochondrial membrane potential (undergoing PCD) which would show an intense level of green and red fluorescence.

Setting [9] is: ATCC30808, 48 h, read-out: N. fowleri ATCC 30808 IC50.

In general, CC50 refers to the concentration at which the toxic effect on the cells reaches its halfway point. On to `CCCCCCCCCCCCCCCCOP(=O)([O-])OCC[N+](C)(C)C` [Miltefosine, miltefosine], for which the CC50 at 24 h in data set [1] (J774A.1 macrophage cell line) is 128000 ± 8850 nM. Besides, in data set [2], the “SI (CC50/IC50)” value is reported as 3.3.

The term IC50 denotes the concentration at which inhibition is half-maximal. Consider `COC(=O)C1(O)CC2OC1(C)n1c3ccccc3c3c4c(c5c6ccccc6n2c5c31)C(=O)NC4` (centres unmarked) [K252a (6), K252a], for which the half-maximal inhibitory concentration (IC50) in data set [3] is 120 ± 30 nM; in data set [2] (setting [9]), 340 ± 90 nM; in data set [2] (ATCC30808, read-out: Activity (IC50) N. fowleri ATCC 30808, text), 338 ± 90 nM. The CC50 at 24 h in data set [1] came to 1070 ± 210 nM. Further, in data set [2], the “SI (CC50/IC50)” value was determined as 3.2.

As to `CN[C@@H]1C[C@H]2O[C@@](C)([C@@H]1OC)n1c3ccccc3c3c4c(c5c6ccccc6n2c5c31)C(=O)NC4=O` [7OSTS (2), 7-oxostaurosporine], the IC50 in data set [3] came to 1070 ± 230 nM; in data set [2] (setting [9]), 1280 ± 350 nM. The CC50 in data set [4] was 5200 ± 1750 nM. The “SI (CC50/IC50)” value in data set [2] came to 4.1.

As for `CO[C@H]1[C@H](O)[C@@H](O)[C@H](n2c3c(Cl)cccc3c3c4c(c5c6cccc(Cl)c6[nH]c5c32)C(=O)NC4=O)O[C@@H]1CO` [Rebeccamycin (5), rebeccamycin], the “Activity against N. fowleri, in words” value in data set [2] was “not active”. Also, in data set [2] (setting [9]), the half-maximal inhibitory concentration (IC50) was greater than 20000 nM.

`CO[C@@H]1C(=O)C[C@H]2O[C@]1(C)n1c3ccccc3c3c4c(c5c6ccccc6n2c5c31)C(=O)NC4` [4′D4′OSTS (3), 4′-demethylamino-4′-oxostaurosporine]: the CC50 at 24 h in data set [1] (J774A.1 macrophage cell line) was greater than 20000 nM. In addition, in data set [2], the “Activity against N. fowleri, in words” value is reported as “only active against the N. fowleri ATCC 30808 strain” and the “SI (CC50/IC50)” value is listed as greater than 1.9. Besides, the half-maximal inhibitory concentration (IC50) in data set [2] (setting [9]) is 10800 ± 2920 nM.

With `O=C1NC(=O)c2c1c1c3ccccc3[nH]c1c1[nH]c3ccccc3c21` [Arcyriflavin A (9), arcyriaflavin A], in data set [2], the “Activity against N. fowleri, in words” value was “no activity was observed”. The IC50 in data set [2] (setting [9]) is greater than 20000 nM.

Turning to `C[C@@H]1[C@H](O)[C@@H](C)/C=C/C=C/C=C/C=C/C=C/C=C/C=C/[C@H](O[C@@H]2O[C@H](C)[C@@H](O)[C@H](N)[C@@H]2O)C[C@@H]2O[C@](O)(C[C@@H](O)C[C@@H](O)[C@H](O)CC[C@@H](O)C[C@@H](O)CC(=O)O[C@H]1C)C[C@H](O)[C@H]2C(=O)O` [Amphotericin B], the IC50 was 160 ± 20 nM in data set [3] and 120 ± 30 nM in data set [2] (setting [9]). The CC50 at 24 h in data set [1] (J774A.1 macrophage cell line) was no less than 200000 nM. Also, the “SI (CC50/IC50)” value in data set [2] was no less than 1666.7.

By IC90 is commonly meant the point of the concentration-response curve where the effect stands at 90%. Regarding `CN[C@@H]1C[C@H]2O[C@@](C)([C@@H]1OC)n1c3ccccc3c3c4c(c5c6ccccc6n2c5c31)C(=O)NC4` [STS (1), staurosporine], in data set [5], the “Chromatin condensation (Hoechst stain)” value was “the nuclei are intense blue”. In addition, the concentration for an effect of 90% (IC90) in data set [3] (ATCC30215, calculated from IC50 and Hill slope, table footnote, unit inferred, read-out: IC90 N. fowleri ATCC 30215) was 970 nM. For the same compound, the “Plasmatic membrane permeabilization (SYTOX Green)” value in data set [6] was “caused plasmatic membrane permeabilization in both strains”. In addition, in data set [7], the “Intracellular ROS (CellROX Deep Red)” value is “Increased levels of intracellular ROS”. Also, the “Mitochondrial membrane potential (JC-1)” value in data set [8] is “Mitochondrial potential collapse was observed”.

Turning to `O=C1NCc2c1c1c3ccccc3[nH]c1c1[nH]c3ccccc3c21` [K252c (8), K252c], the “Activity against N. fowleri, in words” value in data set [2] is listed as “no activity was observed”. Besides, the IC50 in data set [2] (setting [9]) was greater than 20000 nM.

As for `COC1=C(C)O[C@@H]2C[C@@]1(OC)n1c3ccccc3c3c4c(c5c6ccccc6n2c5c31)C(=O)NC4` [SCZ B (4), streptocarbazole B], the half-maximal cytotoxic concentration (CC50) at 24 h in data set [1] (J774A.1 macrophage cell line) was greater than 20000 nM. Moreover, in data set [2], the “Activity against N. fowleri, in words” value was “only active against the N. fowleri ATCC 30808 strain” and the “SI (CC50/IC50)” value is reported as greater than 1.7. In addition, the IC50 in data set [2] (setting [9]) is 11500 ± 310 nM.

`CC12OC(CC1(O)C(=O)O)n1c3ccccc3c3c4c(c5c6ccccc6n2c5c31)CNC4=O` (centres unmarked) [K252b (7), K252b]: the half-maximal inhibitory concentration (IC50) in data set [2] (setting [9]) is greater than 20000 nM.
